Experiment [1] relates to A. baumannii. Kind of experiment: Target exposures (PK/PD index, sigmoid Emax model) for 1-log reduction in lung CFUs. The format is in vivo.
Experiment [2] has as its system panel of 293 CRAB strains (A. baumannii). Kind of experiment: MIC by agar dilution on Muller Hinton Agar, panel of 293 CRAB strains. Type of experiment: cell-based. The method, then: The strain panel contained isolates with 10% MDR (n=29), 86% XDR (n=253) and 4% (n=11) PDR phenotypes. Isolates were collected mainly from patients with pneumonia (59%), bloodstream infections (28%), and skin and soft tissue infections (11%) and categorized according to CLSI breakpoints as XDR when […] the antimicrobial classes described by Magiorakos et al. 2011. […] Comparator antibiotics were tested at CLSI standard conditions.

In another experiment the test system is A. baumannii ATCC 17978. Description: MIC in fhuE expressing A. baumannii strains (plasmid-based expression, IPTG inducible). The format is cell-based, Acinetobacter baumannii. The note with it: for MIC: Acinetobacter baumannii. The source says: The fhuE gene (AWC45_RS10145) from the A. baumannii HUMC1 strain was cloned into the E. coli/A. baumannii shuttle plasmid pVT111 under the control of the isopropyl-beta-D-1-thiogalactopyranoside (IPTG) inducible promoter Ptrc-lacO. The resulting plasmid and the original pVT111 plasmid (control) were transferred to the A. baumannii strain ATCC-17978 by conjugation and transconjugants were selected on LB agar plates containing kanamycin.

The next experiment relates to A. baumannii HUMC1. Kind of experiment: MIC by broth microdilution (CLSI), carbapenem-resistant clinical isolate HUMC1. Type of experiment: cell-based, Acinetobacter baumannii. As to conditions: Acinetobacter baumannii, read-out: MIC. The procedure: Two A. baumannii isolates were used in this example: HUMC1 (BV374) (Spellberg/Luna Laboratory, University of Southern California, Los Angeles, Calif.) and UNT091-1 (BV378) (UNT Health Science Center, Fort Worth, Tex.). The HUMC1 isolate is a hyper-virulent drug-resistant clinical strain isolated from a blood-stream infection. […] The isolates were stored at −80° C. as 20% (v/v) glycerol cultures.
MICs were determined by the broth microdilution method following the guidelines of the Clinical Laboratory Standards Institute (CLSI) using RPMI supplemented with […] cationic-adjusted Muller Hinton broth (CA-MHB) as assay medium. To prepare the bacterial inocula, 3-5 colonies of bacterial strains from over-night growth on ChromAgar orientation plates (CHROMagar Cat. No. RT412) were suspended in 5 mL saline. The turbidity of the bacterial suspension was adjusted to 0.5 McFarland units (equal to an optical density at 610 nm (OD610) to 0.08-0.1). This suspension was diluted 200-fold in RPMI supplemented with 10% (v/v) FCS to reach a final concentration of […] colony forming units (CFU)/mL and was used to inoculate the microtiter plates.
Serial 2-fold dilutions of the antibiotics were prepared in a separate 96-well plate polypropylene U-bottom plate (Ratiolab Cat. No. 6018111) in RPMI supplemented with 10% (v/v) FCS at 10-fold of the final test concentrations and 10 μl of the dilutions were transferred to new 96-well polystyrene U-bottom microtiter plates with a parafilm plate cover.
The plates were then inoculated with 90 μL per well of the prepared bacterial suspensions in using a multichannel pipette (Eppendorf), with the first column containing 4 wells each for growth control (no antibiotic). […] The MIC was recorded as the lowest concentration of the compound that inhibited bacterial growth by visual inspection. MICs were determined at least in duplicates and in the case of variations, the higher values are provided.
Background: In broth dilution the organism is exposed to a series of concentrations in liquid medium.

The subject of the next experiment is A. baumannii UNT238. The method, then: A. baumannii clinical isolates were stored at −80° C. as 20% (v/v) in glycerol stock cultures.
Selective agar plates were prepared using RPMI powder (Sigma R7755) dissolved at 10.3 g/L with agar at 15 g/L and boiled until complete agar melting. After cooling the media to 45° C., 0.3 g/L L-glutamine (Sigma G7513), 25 mM HEPES (Gibco 15630-056) and 10% (v/v) FCS (Gibco 10500-064) were added.
The culture inocula were prepared from a bacterial NaCl suspension at 0.5 McFarland diluted 200-times in 100 mL of RPMI (Sigma R8758)+10% FCS in 500 mL flasks to reach ˜5×10^5 CFU/mL. The flasks were incubated for 24 h at 37° C. under shaking at 220 rpm. After incubation, the cells were pelleted by centrifugation (10 min, 7000 rpm at RT) and re-suspended in 1 mL PBS. […] After incubation at 35° C. for 24 h colonies were counted, and the frequency of resistance was calculated as the ratio between the number of colonies growing on plates with antibiotic and the total colony count of the inocula.

In experiment [3] the test system is A. baumannii. Kind of experiment: Liquid MIC determination using RPMI supplemented with FCS, clinical panel. Type of experiment: cell-based. The note with it: Acinetobacter baumannii. The source says:
All isolates were resistant to carbapenems.

Where [4] appears, read: Acinetobacter baumannii, iron-chelated nutrient rich MHA (0.1 mM PIH), agar dilution.

≈ marks a conversion by molar mass, not a printed value. Read-outs that look alike come from different tables or passages of the source.

By MIC50 is commonly meant the lowest concentration that inhibits either 50% of growth or 50% of the strains tested, depending on the study. Lower therefore signals greater potency. One may read the MIC90 as the lowest concentration that inhibits either 90% of growth or 90% of the strains tested, depending on the study. A word on the MIC: it is the least concentration at which growth counts as inhibited. With `CO[C@H]1/C=C/O[C@@]2(C)Oc3c(C)c(O)c4c(c3C2=O)C2=NC3(CCN(CC(C)C)CC3)NC2=C(NC(=O)/C(C)=C\C=C\[C@H](C)[C@H](O)[C@@H](C)[C@@H](O)[C@@H](C)[C@H](OC(C)=O)[C@@H]1C)C4=O` [rifabutin], the “Target AUC required to treat” value came out at 5.74 mg·h/L in the experiment on A. baumannii [1] (MIC 0.5 mg/L), 11.48 mg·h/L in the experiment on A. baumannii [1] (MIC 1 mg/L) and 22.96 mg·h/L in the experiment with A. baumannii [1] (MIC 2 mg/L). The “Target Cmax required to treat” value in the experiment with A. baumannii [1] (MIC 0.5 mg/L) worked out at 1.30 mg/L; in the experiment on A. baumannii [1] (MIC 1 mg/L) it was 2.59 mg/L; in the experiment with A. baumannii [1] (MIC 2 mg/L) it was 5.19 mg/L. The MIC50 was 0.008 µg/mL (≈ 0.00944 µM) in experiment [2] (setting [4]) and 0.004 µg/mL (≈ 0.00472 µM) against A. baumannii [3]. Moreover, the MIC90 in experiment [2] (setting [4]) is 1 µg/mL (≈ 1.18 µM); in the experiment with A. baumannii [3], 2 µg/mL (≈ 2.36 µM). In addition, the activity entry in experiment [2] (standard MHA) is “only marginal activity”. Further, the MIC in the experiment with A. baumannii ATCC 17978 (ATCC17978, read-out: rifabutin MIC, FhuE expressing plasmid, CA-MHB 1 mM IPTG) was 0.002 µg/mL (≈ 0.00236 µM); in the experiment with A. baumannii ATCC 17978 (ATCC17978, read-out: rifabutin MIC, FhuE expressing plasmid, CA-MHB no IPTG) it was 0.016 µg/mL (≈ 0.0189 µM); in the experiment with A. baumannii ATCC 17978 (ATCC17978, read-out: rifabutin MIC, empty plasmid, CA-MHB 1 mM IPTG) it was 2 µg/mL (≈ 2.36 µM); in the experiment on A. baumannii ATCC 17978 (ATCC17978, read-out: rifabutin MIC, empty plasmid, CA-MHB no IPTG), 1 µg/mL (≈ 1.18 µM); with A. baumannii ATCC 17978 (ATCC17978, read-out: rifabutin MIC, no plasmid, CA-MHB 1 mM IPTG), 4 µg/mL (≈ 4.72 µM); in the experiment with A. baumannii ATCC 17978 (ATCC17978, read-out: rifabutin MIC, no plasmid, CA-MHB no IPTG), 4 µg/mL (≈ 4.72 µM). The minimum inhibitory concentration (MIC) in the experiment on A. baumannii HUMC1 (HUMC1, HUMC1, RPMI plus 10% FCS (Table 1)) was found to be 0.002 µg/mL; in the experiment with A. baumannii HUMC1 (HUMC1, HUMC1 parental strain, RPMI + 10% FCS (Table 2)), 0.002 µg/mL. In the experiment with A. baumannii ATCC 17978 (in the presence of IPTG), the “MIC lower in fhuE expressing plasmid strain compared to empty plasmid strain” value is on record as 1000 fold. Further, the “Frequency of Mutational Resistance (FoR)” value turned out to be 2.30E−05 with A. baumannii UNT238 (UNT238, rifabutin 0.2 mg/L); 8.80E−10 in the experiment on A. baumannii UNT238 (UNT238, rifabutin 2 mg/L); 1.60E−08 in the experiment on A. baumannii UNT238 (UNT238, rifabutin 20 mg/L).

Values taken from US11833139B2 (priority 2019, dated 2023).
